The results in this text go back to ChEMBL document CHEMBL1145498, “A systematic interaction map of validated kinase inhibitors with Ser/Thr kinases” (Proc Natl Acad Sci U S A, 2007).

Assay [1] has as its target T1, Serine/threonine-protein kinase Nek2 (Homo sapiens) (UniProt P51955).
T1 sequence (whole entry): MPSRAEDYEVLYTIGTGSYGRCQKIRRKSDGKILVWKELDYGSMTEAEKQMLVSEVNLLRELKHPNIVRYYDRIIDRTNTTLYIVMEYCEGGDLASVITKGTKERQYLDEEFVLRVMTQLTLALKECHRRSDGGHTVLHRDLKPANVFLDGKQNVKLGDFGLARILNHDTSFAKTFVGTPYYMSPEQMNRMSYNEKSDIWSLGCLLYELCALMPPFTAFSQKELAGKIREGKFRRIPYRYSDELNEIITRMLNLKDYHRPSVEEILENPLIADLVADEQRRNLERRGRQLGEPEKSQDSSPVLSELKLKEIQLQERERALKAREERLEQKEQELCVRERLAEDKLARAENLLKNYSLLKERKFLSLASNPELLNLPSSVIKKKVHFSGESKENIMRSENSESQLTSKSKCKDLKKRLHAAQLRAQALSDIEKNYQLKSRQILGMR

Assay [2] concerns the target T2, Serine/threonine-protein kinase 4 (Homo sapiens) (UniProt Q13043).
T2 sequence (whole entry): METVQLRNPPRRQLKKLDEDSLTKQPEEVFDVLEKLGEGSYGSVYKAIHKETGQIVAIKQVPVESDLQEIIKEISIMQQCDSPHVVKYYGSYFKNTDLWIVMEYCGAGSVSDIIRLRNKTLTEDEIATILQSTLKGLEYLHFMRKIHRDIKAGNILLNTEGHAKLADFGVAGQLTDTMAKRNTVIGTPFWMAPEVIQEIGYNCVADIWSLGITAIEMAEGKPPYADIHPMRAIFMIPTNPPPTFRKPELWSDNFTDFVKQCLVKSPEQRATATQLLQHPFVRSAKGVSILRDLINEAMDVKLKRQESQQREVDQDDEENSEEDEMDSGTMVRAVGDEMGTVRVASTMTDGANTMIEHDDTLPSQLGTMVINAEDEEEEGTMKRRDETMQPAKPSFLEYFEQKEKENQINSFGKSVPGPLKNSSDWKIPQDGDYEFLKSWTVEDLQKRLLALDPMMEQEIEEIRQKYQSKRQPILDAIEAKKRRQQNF

Assay [3] addresses Serine/threonine-protein kinase PAK 6 (Homo sapiens) (UniProt Q9NQU5).
Assay [4] has as its target Calcium/calmodulin-dependent protein kinase type II subunit gamma (Homo sapiens) (UniProt Q13555).
Assay [5] has as its target Serine/threonine-protein kinase RIO2 (Homo sapiens) (UniProt Q9BVS4).
For assay [6], the target named is Calcium/calmodulin-dependent protein kinase type 1D (Homo sapiens) (UniProt Q8IU85).
Sequence of Calcium/calmodulin-dependent protein kinase type 1D (Homo sapiens) (Q8IU85 whole entry, looked up): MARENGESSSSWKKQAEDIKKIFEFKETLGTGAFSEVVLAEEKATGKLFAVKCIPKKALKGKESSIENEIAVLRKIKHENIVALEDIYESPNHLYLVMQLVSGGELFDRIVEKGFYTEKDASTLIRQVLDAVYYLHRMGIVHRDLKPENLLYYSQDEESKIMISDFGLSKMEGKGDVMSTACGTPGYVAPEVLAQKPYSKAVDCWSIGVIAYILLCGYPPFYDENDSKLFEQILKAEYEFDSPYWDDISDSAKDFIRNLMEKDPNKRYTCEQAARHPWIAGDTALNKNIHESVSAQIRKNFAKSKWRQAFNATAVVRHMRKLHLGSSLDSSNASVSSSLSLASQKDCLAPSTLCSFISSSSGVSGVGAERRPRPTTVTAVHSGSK
The target in assay [7] is T3, Serine/threonine-protein kinase VRK3 (Homo sapiens) (UniProt Q8IV63).
T3 sequence (whole entry): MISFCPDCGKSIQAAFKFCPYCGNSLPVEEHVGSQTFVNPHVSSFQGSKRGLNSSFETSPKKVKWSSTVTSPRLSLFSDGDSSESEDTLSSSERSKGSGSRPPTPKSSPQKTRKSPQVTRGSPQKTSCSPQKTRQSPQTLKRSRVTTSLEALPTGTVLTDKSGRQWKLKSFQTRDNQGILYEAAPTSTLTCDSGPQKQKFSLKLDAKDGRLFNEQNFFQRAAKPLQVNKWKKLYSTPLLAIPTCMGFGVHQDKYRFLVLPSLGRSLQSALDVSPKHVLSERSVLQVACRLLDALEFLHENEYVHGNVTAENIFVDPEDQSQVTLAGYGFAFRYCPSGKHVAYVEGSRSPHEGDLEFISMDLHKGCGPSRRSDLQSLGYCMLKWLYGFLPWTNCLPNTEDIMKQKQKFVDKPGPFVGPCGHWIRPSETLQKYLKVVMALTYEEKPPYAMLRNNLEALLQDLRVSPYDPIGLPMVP

Assay [8] deals with Serine/threonine-protein kinase pim-1 (Homo sapiens) (UniProt P11309).
Sequence of Serine/threonine-protein kinase pim-1 (Homo sapiens) (P11309 whole entry, looked up): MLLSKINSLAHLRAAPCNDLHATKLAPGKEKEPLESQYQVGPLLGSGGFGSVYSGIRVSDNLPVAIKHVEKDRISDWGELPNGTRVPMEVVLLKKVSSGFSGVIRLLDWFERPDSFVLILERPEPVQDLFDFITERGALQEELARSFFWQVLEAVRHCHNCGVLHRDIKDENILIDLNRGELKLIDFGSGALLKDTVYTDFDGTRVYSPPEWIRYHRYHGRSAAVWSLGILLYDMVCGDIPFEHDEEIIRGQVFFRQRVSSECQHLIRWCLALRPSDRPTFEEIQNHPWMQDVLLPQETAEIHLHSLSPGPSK
Assay [9] deals with STE20-like serine/threonine-protein kinase (Homo sapiens) (UniProt Q9H2G2).
Sequence of STE20-like serine/threonine-protein kinase (Homo sapiens) (Q9H2G2 whole entry, looked up): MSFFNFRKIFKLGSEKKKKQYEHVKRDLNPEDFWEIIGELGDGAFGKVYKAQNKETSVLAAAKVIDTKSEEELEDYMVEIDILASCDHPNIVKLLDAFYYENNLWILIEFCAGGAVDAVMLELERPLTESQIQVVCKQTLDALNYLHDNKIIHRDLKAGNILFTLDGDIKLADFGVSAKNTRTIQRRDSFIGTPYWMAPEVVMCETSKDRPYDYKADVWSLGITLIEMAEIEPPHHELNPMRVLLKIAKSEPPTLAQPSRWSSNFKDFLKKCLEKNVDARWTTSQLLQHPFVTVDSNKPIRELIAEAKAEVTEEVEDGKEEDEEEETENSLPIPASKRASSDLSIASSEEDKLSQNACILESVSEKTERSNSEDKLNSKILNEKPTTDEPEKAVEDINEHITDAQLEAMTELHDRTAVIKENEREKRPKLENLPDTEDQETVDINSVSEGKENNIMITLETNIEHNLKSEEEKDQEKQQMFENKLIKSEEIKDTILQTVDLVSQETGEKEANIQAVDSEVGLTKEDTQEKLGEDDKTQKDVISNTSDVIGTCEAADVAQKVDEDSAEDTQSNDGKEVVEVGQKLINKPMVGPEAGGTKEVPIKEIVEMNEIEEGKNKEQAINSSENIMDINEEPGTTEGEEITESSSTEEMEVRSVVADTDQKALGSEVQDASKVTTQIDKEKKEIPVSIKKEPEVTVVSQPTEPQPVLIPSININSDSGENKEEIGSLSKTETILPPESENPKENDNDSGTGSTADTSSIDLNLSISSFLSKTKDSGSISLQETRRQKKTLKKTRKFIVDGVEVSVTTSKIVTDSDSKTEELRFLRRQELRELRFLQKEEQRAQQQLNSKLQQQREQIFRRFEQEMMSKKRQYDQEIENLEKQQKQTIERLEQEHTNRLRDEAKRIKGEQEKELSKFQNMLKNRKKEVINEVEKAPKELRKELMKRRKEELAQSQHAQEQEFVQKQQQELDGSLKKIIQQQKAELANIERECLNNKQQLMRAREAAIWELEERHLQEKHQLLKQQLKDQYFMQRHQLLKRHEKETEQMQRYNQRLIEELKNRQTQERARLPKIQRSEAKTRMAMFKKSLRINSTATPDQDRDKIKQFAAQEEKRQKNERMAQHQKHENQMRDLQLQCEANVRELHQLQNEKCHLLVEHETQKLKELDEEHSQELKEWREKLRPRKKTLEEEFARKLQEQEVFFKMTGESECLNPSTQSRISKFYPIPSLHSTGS
Assay [10] addresses T4, Calcium/calmodulin-dependent protein kinase type IV (Homo sapiens) (UniProt Q16566).
T4 sequence (whole entry): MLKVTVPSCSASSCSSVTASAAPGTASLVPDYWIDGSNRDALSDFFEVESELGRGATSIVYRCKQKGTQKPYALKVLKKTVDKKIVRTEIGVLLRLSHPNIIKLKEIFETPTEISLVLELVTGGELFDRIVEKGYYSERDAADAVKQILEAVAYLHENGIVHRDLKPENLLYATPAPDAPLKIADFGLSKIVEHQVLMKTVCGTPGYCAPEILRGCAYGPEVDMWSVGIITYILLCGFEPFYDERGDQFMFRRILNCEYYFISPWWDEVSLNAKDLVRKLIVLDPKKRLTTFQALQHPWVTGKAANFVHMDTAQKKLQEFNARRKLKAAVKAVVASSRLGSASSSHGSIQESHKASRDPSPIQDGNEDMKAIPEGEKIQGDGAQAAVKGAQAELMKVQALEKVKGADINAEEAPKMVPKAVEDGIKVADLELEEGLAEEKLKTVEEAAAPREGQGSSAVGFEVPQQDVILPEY

In assay [11] the target is Serine/threonine-protein kinase 10 (Homo sapiens) (UniProt O94804).
Assay [12] has as its target Mitogen-activated protein kinase 11 (Homo sapiens, UniProt Q15759).
In assay [13] the target is Serine/threonine-protein kinase Chk2 (Homo sapiens, UniProt O96017).
Sequence of Serine/threonine-protein kinase Chk2 (O96017 whole entry): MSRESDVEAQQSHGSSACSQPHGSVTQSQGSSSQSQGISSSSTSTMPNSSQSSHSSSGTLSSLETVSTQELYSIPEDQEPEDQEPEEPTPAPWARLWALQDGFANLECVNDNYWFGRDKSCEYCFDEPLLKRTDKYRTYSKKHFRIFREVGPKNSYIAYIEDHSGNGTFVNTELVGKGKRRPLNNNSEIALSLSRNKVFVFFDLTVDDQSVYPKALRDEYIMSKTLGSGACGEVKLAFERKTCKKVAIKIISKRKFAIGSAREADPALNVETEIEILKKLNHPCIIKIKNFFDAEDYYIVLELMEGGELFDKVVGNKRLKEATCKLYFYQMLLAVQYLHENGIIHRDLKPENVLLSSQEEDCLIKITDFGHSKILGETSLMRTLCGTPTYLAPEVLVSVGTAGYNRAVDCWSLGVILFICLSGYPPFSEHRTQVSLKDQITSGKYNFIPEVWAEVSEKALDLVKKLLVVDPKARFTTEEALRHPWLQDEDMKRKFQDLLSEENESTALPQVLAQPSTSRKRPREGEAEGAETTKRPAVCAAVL
The target in assay [14] is Serine/threonine-protein kinase 38 (Homo sapiens) (UniProt Q15208).
Sequence of Serine/threonine-protein kinase 38 (Homo sapiens) (Q15208 2-465 limits assumed): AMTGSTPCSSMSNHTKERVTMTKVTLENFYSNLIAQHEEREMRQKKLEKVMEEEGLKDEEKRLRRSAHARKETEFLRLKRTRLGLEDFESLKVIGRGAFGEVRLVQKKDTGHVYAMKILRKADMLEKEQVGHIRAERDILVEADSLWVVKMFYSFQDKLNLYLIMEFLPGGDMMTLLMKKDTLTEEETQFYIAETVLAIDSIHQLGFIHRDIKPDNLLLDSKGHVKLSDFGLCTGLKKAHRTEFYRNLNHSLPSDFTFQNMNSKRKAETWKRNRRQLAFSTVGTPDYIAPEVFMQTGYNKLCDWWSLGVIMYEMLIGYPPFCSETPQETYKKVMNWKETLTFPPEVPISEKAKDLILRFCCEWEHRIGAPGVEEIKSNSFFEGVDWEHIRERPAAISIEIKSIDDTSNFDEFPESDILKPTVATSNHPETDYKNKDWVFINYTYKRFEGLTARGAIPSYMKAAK
Assay [15] addresses TRAF2 and NCK-interacting protein kinase (Homo sapiens) (UniProt Q9UKE5).
In assay [16] the target is Dual specificity mitogen-activated protein kinase kinase 2 (Homo sapiens, UniProt P36507).
Assay [17] deals with Serine/threonine-protein kinase pim-2 (Homo sapiens, UniProt Q9P1W9).
The target in assay [18] is Cyclin-dependent kinase 2 (Homo sapiens, UniProt P24941).
Assay [19] has as its target Serine/threonine-protein kinase 26 (Homo sapiens) (UniProt Q9P289).
In assay [20] the target is Mitogen-activated protein kinase 3 (Homo sapiens, UniProt P27361).
Sequence of Mitogen-activated protein kinase 3 (P27361 whole entry): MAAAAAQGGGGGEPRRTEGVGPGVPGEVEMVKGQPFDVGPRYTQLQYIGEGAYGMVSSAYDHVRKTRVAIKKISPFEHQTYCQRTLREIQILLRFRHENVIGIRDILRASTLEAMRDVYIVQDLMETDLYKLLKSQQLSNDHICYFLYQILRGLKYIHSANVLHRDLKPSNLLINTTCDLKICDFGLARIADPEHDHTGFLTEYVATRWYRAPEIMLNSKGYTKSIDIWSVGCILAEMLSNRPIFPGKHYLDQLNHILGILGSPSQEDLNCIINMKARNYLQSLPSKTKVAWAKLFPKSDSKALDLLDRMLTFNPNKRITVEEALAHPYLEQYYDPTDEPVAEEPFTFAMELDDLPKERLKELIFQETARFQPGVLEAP

Sequence of Serine/threonine-protein kinase RIO2 (Homo sapiens) (Q9BVS4 whole entry, looked up): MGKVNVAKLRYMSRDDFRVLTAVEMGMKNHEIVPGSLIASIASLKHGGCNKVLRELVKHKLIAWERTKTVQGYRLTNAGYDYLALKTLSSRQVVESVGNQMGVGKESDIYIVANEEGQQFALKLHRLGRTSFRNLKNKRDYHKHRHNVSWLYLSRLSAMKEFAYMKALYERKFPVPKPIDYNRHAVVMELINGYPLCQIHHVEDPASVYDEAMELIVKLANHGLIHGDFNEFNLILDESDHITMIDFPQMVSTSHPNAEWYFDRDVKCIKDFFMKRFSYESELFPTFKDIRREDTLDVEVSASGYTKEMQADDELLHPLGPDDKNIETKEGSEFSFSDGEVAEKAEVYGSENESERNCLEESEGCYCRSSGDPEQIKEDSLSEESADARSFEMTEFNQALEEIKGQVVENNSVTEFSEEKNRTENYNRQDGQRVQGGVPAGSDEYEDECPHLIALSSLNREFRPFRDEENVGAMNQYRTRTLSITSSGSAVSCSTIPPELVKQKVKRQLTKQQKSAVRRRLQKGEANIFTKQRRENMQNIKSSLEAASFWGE
Sequence of Mitogen-activated protein kinase 11 (Q15759 whole entry): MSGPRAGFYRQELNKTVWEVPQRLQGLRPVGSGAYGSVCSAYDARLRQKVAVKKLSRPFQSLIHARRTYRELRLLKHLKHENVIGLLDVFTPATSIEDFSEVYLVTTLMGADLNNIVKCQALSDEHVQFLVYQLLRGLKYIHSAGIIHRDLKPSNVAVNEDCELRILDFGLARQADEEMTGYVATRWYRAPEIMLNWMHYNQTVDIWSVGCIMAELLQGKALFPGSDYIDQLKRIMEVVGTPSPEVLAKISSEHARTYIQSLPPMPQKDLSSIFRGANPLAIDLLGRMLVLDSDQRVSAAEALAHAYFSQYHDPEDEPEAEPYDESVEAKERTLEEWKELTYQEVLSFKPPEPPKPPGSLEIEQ
Sequence of Serine/threonine-protein kinase PAK 6 (Homo sapiens) (Q9NQU5 whole entry, looked up): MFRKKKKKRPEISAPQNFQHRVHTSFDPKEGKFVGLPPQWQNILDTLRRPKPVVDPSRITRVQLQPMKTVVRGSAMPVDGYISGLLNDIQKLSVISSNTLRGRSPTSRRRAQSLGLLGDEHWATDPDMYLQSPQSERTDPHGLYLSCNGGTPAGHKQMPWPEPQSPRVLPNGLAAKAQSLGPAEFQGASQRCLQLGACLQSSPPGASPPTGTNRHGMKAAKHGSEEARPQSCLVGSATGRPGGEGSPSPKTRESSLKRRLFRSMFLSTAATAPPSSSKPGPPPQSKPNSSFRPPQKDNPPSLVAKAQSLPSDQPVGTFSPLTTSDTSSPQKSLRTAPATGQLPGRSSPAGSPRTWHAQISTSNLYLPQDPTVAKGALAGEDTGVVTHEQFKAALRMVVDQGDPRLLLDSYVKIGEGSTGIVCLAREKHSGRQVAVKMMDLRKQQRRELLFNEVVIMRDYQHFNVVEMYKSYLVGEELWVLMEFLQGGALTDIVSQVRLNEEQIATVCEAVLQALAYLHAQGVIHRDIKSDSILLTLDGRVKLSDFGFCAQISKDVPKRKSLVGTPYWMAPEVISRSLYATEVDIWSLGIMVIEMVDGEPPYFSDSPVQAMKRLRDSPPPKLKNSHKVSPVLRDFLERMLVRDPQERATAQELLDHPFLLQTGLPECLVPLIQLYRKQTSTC

In the case of `CCOc1cc2ncnc(Nc3cccc(Br)c3)c2cc1OCC`, the ΔTm was found to be 1.1 °C in assay [1]; 2.2 °C in assay [2]; 0.8 °C in [3]; 0.5 °C in assay [4]; 3.5 °C in [5]; 0.7 °C in assay [6]. Also, the ΔTm came to 0.1 °C in assay [7]; 0.2 °C in [8]; 7.9 °C in [9]; 0.3 °C in assay [10]; 10.3 °C in assay [11]; 2.2 °C in [12]. The thermal shift (ΔTm) was 2.6 °C in assay [13]; 0.7 °C in [14]; 3.1 °C in [15]; 0.8 °C in assay [16]; 1.1 °C in assay [17]; 0.4 °C in assay [18]. In addition, the ΔTm is 0.8 °C in assay [19] and 0.7 °C in assay [20].
Take `Nc1n[nH]c2nc3ccccc3nc12` [QUINOXALINE1]: the ΔTm was found to be 1.2 °C in assay [1]; 0.8 °C in assay [2]; 0.6 °C in assay [3]; 0.4 °C in [4]; 0.4 °C in [5]; 0.2 °C in [6]. For the same compound, the ΔTm was 0.4 °C in assay [7]; -0.8 °C in assay [8]; 2 °C in assay [9]; 0.3 °C in assay [10]; 1.6 °C in assay [11]; 1 °C in [12]. Besides, the ΔTm in assay [13] turned out to be 0.5 °C; in assay [14], 0.4 °C; in [15], 0.7 °C; in assay [16], 0.1 °C; in assay [17], 1.3 °C; in [18], 1.3 °C. The ΔTm came out at 0.7 °C in assay [19] and 0.3 °C in assay [20].
On to `O=C1NC(=O)c2c1c1c3ccccc3n3c1c1c2c2ccccc2n1C1CCC3O1`, for which the ΔTm was 0.3 °C in assay [1]; 4.7 °C in [2]; 1.5 °C in assay [3]; 0 °C in assay [4]; -0.2 °C in [5]; 1.6 °C in assay [6]. For the same compound, the ΔTm in [7] is 0 °C; in assay [8], 6.2 °C; in assay [9] it was 0.1 °C; in [10], -0.2 °C; in assay [11], -0.5 °C; in assay [12] it was -0.1 °C. The ΔTm in [13] was 3.9 °C; in assay [14] it was 0 °C; in assay [15], 7.6 °C; in assay [16] it was -0.2 °C; in assay [17] it was 5.5 °C; in [18] it was 0.2 °C. Further, the ΔTm in [19] was -0.6 °C; in assay [20] it was -0.2 °C.
As for `O=C1Nc2ccc(S(=O)(=O)O)cc2/C1=C1/Nc2ccccc2/C1=N\O`, the thermal shift (ΔTm) in assay [1] was 3.5 °C; in assay [2] it was 7.4 °C; in assay [3] it was 3.2 °C; in [4], 2.5 °C; in assay [5] it was 1.2 °C; in [6], 0.7 °C. In addition, the thermal shift (ΔTm) turned out to be 1.9 °C in assay [7]; 3.3 °C in [8]; 1.1 °C in assay [9]; 1.3 °C in assay [10]; 0.5 °C in [11]; 1.4 °C in [12]. Moreover, the ΔTm is 4.5 °C in [13]; 1.9 °C in assay [14]; 2.4 °C in [15]; 4.9 °C in assay [16]; 3.5 °C in [17]; 8.1 °C in assay [18]. The ΔTm is 0.5 °C in [19] and 2.4 °C in [20].
Regarding `O=C1c2ccccc2-[n+]2ccc3c([nH]c4ccccc43)c21` [FASCAPLYSIN CHLORIDE], the ΔTm is -2 °C in assay [1]; -1.6 °C in assay [2]; -0.9 °C in [3]; -1.8 °C in assay [4]; -0.9 °C in [5]; -4.3 °C in assay [6]. The ΔTm in assay [7] was -0.4 °C; in assay [8], -0.8 °C; in [9], -0.9 °C; in [10] it was 0.7 °C; in assay [11], -1.8 °C; in assay [12], -1.3 °C. The shift in melting temperature (ΔTm) in assay [13] was 4.9 °C; in [14], -0.5 °C; in assay [15] it was -0.9 °C; in assay [16], -0.8 °C; in assay [17], -2.4 °C; in [18], 0 °C. For the same compound, the thermal shift (ΔTm) in assay [19] is -2.5 °C; in assay [20], 0.3 °C.
Consider `CSc1nc(-c2ccc(F)cc2)c(-c2ccnc(NC(C)c3ccccc3)c2)[nH]1` (racemic), for which the ΔTm in assay [1] is 0.9 °C; in assay [2], 1.3 °C; in [3] it was -0.3 °C; in assay [4], -0.3 °C; in assay [5] it was 0 °C; in assay [6], 0.5 °C. For the same compound, the ΔTm in assay [7] was -0.3 °C; in [8], -0.4 °C; in assay [9], 0.8 °C; in [10] it was -0.3 °C; in assay [11], 1.9 °C; in [12], 9.5 °C. Besides, the ΔTm is 0.7 °C in assay [13]; 0.3 °C in [14]; -1.2 °C in [15]; 0.1 °C in assay [16]; -0.2 °C in [17]; -0.5 °C in assay [18]. Further, the ΔTm in assay [19] is -0.1 °C; in assay [20] it was 0 °C.
For `O=C1Cc2c([nH]c3ccc(Br)cc23)-c2ccccc2N1` [KENPAULLONE], the shift in melting temperature (ΔTm) in assay [1] was 1.3 °C; in assay [2], 4.9 °C; in assay [3], 3.7 °C; in assay [4] it was -0.2 °C; in assay [5], 1.8 °C; in [6], 1 °C. Further, the thermal shift (ΔTm) in [7] is -0.2 °C; in assay [8], 2.6 °C; in assay [9], 1.7 °C; in assay [10], 0.3 °C; in assay [11], 2.2 °C; in assay [12] it was 0.2 °C. For the same compound, the ΔTm is 6.1 °C in [13]; 1.1 °C in assay [14]; 6.7 °C in assay [15]; -0.3 °C in [16]; 1.2 °C in [17]; 3.6 °C in [18]. Further, the results for the ΔTm in assay [19] and in [20] were 1.5 °C and 0.5 °C, respectively.

By ΔTm is commonly meant the change in melting temperature against a reference sample.
